≈ marks a conversion by molar mass, not a printed value. Read-outs that look alike come from different tables or passages of the source. Residues, ends and D or L forms follow the SMILES beside them.
Experiments:
Assay type in all cases: cell-based, Pseudomonas aeruginosa
[1] = test system: planktonic P. aeruginosa; assay: Minimum inhibitory concentration (MIC100) assay; conditions: 4 h at 37° C., mean ± SEM, max 50 μM
Procedure: First the peptide ability to inhibit the proliferation of P. aeruginosa cells was assessed by determining the minimum inhibitory concentration (MIC100).
MIC100 of each protein/peptide was determined as described (Torrent M. et al. 2012). Bacteria were incubated at 37° C. overnight in Luria-Bertani broth (LB) and diluted to give approximately 5×10^5 CFU/mL. In each assay protein/peptide serially diluted from 50 to 0.2 μM in 10 mM sodium phosphate, 0.1 M NaCl, buffer pH 7.5 were added to 100 μl bacteria dilution and incubated for 4 h at 37° C. Subsequently, samples were plated onto Petri dishes and incubated at 37° C. overnight. MIC100 values were determined as function of the total growth inhibition by the protein and peptides, from two independent experiments performed in triplicate.

[2] = test system: planktonic P. aeruginosa
Procedure: The microbial cell viability was then assayed using the BacTiter-Glo™ luminescent kit. […] No cell reduction was detected for the peptide GL-13 even for the maximum concentration assayed (50 μM).
Bacterial viability was assayed using the BacTiter-Glo™ microbial cell viability kit. Briefly, protein/peptides were dissolved in 10 mM sodium phosphate, 0.1M buffer, pH 7.5, serially diluted from 50 to 0.1 μM and tested in a 96-well microtiter plate containing P. aeruginosa planktonic (OD600˜0.2) or 24 h formed biofilm for 4 h at 37° C. Fifty microliters of BacTiter-Glo™ reagent was added to each well according to the manufacturer's instructions and incubated at room temperature for 15 min. Luminescence was read on a Victor3 plate reader with a 3-s integration time. Fifty percent (ED50) and total inhibitory concentrations were calculated by fitting the data to a dose-response curve.

[3] = test system: planktonic P. aeruginosa; assay: DiSC3(5) cytoplasmic membrane depolarization assay, planktonic; conditions: for Depolarization %max: 10% Triton X-100 as maximum reference
Procedure: To further investigate the antimicrobial mechanism of action of the peptide, its ability to depolarize P. aeruginosa membranes was evaluated. Depolarization activity was analyzed by the DiSC3(5) assay (Table 5). DiSC3(5) is a fluorescent probe, which is sensitive to membrane potential. The DiSC3(5) fluorescence is quenched upon interaction with intact cell membranes. When the membrane potential is lost, the probe is released to the medium, resulting in an increase of fluorescence that can be recorded as a function of peptide concentration. Thus, the half depolarization action (ED50) was evaluated, defined as the peptide concentration needed to achieve a half-depolarization effect, and the total depolarization activity at final incubation time (Table 3).
Membrane depolarization was followed using the method described earlier (Torrent M. et al. 2008). Briefly, bacterial cells were grown at 37° C. to an OD600=0.2, centrifuged at 5000×g for 7 min, washed with 5 mM Hepes at pH 7.2 containing 20 mM glucose, and resuspended in 5 mM Hepes-KOH, 20 mM glucose, and 100 mM KCl at pH 7.2 to an OD600=0.05 and 200 μl were transferred to a microtiter plate for planktonic assays. For biofilm assay, 24 h formed P. aeruginosa biofilm in a 96-well microtiter plate were washed three times with sterile PBS. Afterwards P. aeruginosa biofilms were washed with 5 mM Hepes at pH 7.2 containing 20 mM glucose, and rinsed in 5 mM Hepes-KOH, 20 mM glucose, and 100 mM KCl at pH 7.2. In both cases, DiSC3(5) was added to a final concentration of 0.4 μM and changes in the fluorescence were continuously recorded after addition of peptides at 10 μM in a Victor3 plate reader. A maximum reference value for total depolarization is calculated for Triton X-100 at 10%. Alternatively, changes in the fluorescence were continuously recorded after addition of a serially diluted protein/peptides from 50 to 0.1 μM. The peptide concentration required to achieve half of total and total membrane depolarization after 40 min incubation time was estimated from nonlinear regression analysis as previously described (Torrent M. et al. 2010)

[4] = test system: pre-established P. aeruginosa biofilm; assay: Biofilm eradication assay, crystal violet staining; conditions: 24 h formed biofilm; 4 h at 37° C.; 10% Triton X-100 as maximum reference
Procedure: Following, the biofilm eradication activity was determined (FIG. 1 and Table 6). […] Moreover, the biofilm eradication activity of all the tested reference peptides was well above the maximum concentration tested (50 μM), except for RN3(5-17P22-36) which was able to eradicate the biofilm close to 50 μM.
Biofilm formation assay was modified from the previously described protocol (Huedo P. et al. 2014). Briefly, overnight cultures of P. aeruginosa were centrifuged at 5000×g for 5 min, washed and adjusted to an OD600=0.1 in tryptic soy medium (TSB). Two hundred microliters of the bacterial suspension were dispensed in each well of a polystyrene 96-well microtiter plate (Greiner Bio-one, France). The plate was incubated at 37° C. on an orbital shaker (30 rpm). The media was exchanged with fresh pre-warmed TSB after 4 h, in order to remove the non-attached bacteria. After 24 h incubation, the formation of biofilm was then evaluated using the crystal violet staining technique (Stepanovic S. et al. 2000). Briefly, the plates were washed three times with PBS, fixed at 60° C. for 1 h, and stained for 15 min with 200 μl of 0.1% crystal violet. After the dye was discarded, plates were rinsed in PBS and allowed to dry for 30 min at 37° C. Crystal violet was dissolved in 250 μl of 95% ethanol for 15 min, and the OD570 of the extracted dye was measured using a Victor3 plate reader (Perkin-Elmer, Waltham, Mass.).
Biofilms were grown as above. Twenty-four hour formed P. aeruginosa biofilm was washed three times with sterile PBS, and rinsed with 10 mM sodium phosphate buffer pH 7.5. Each well was treated with increasing protein/peptide concentrations (from 0.01 to 50 μM) and incubated at 37° C. for 4 h. The biofilm eradication was then evaluated using the crystal violet staining technique (Stepanovic S. et al. 2000). The ability of the antimicrobial peptides to disperse and reduce the biofilm mass of preformed biofilms was calculated. The peptide concentration required to achieve total preformed biofilm eradication after 4 h incubation time was estimated. A maximum reference value was taken for Triton X-100 at 10%. The minimum biofilm eradication concentration (MBEC), defined as the protein/peptide concentration where the 99.9% of the biofilm mass is eradicated was estimated.

[5] = planktonic P. aeruginosa, 4 h at 37° C., mean ± SEM, N.D. = not detected at 50 μM, read-out: IC50 (50% bacterial viability)

SMILES | MIC100 [1] [µM] | IC50 [2, 5] [nM] | Depolarization %max [3] [%] | Biofilm eradication (%max) [4] [%] | IC50 ([2]; planktonic, 4 h) [nM] | Depolarization ED50 ([3]; 40 min, N.D. = not detected at 50 μM)
CC[C@H](C)[C@H](NC(=O)CNC(=O)[C@@H](NC(=O)[C@H](CCCCN)NC(=O)[C@H](CCCCN)NC(=O)[C@H](Cc1ccccc1)NC(=O)[C@H](CC(C)C)NC(=O)[C@H](CCCCN)NC(=O)[C@H](Cc1c[nH]c2ccccc12)NC(=O)[C@@H](N)CCCCN)[C@@H](C)CC)C(=O)NCC(=O)N[C@@H](C)C(=O)N[C@H](C(=O)N[C@@H](CC(C)C)C(=O)N[C@@H](CCCCN)C(=O)N[C@H](C(=O)N[C@@H](CC(C)C)C(=O)N[C@H](C(=O)N[C@H](C(=O)NCC(=O)N[C@@H](CC(C)C)C(=O)N1CCC[C@H]1C(=O)N[C@@H](C)C(=O)N[C@@H](CC(C)C)C(=O)N[C@H](C(=O)N[C@@H](CO)C(N)=O)[C@@H](C)CC)[C@@H](C)O)[C@@H](C)O)C(C)C)C(C)C [CA-M] | 6.00 ± 0.05 (≈ 16.8 µg/mL) | 2540 ± 1080 | 71.36 ± 7.60 | 53.03 ± 1.46 | – | –
CC[C@H](C)[C@H](NC(=O)[C@H](CCC(N)=O)NC(=O)CN)C(=O)N[C@H](C(=O)N[C@@H](CC(N)=O)C(=O)N[C@@H](CC(C)C)C(=O)N[C@@H](CCCCN)C(=O)N[C@@H](C)C(=O)N[C@@H](CO)C(=O)N[C@@H](CC(C)C)C(=O)N[C@@H](CC(=O)O)C(=O)N[C@@H](CC(C)C)C(=O)N[C@@H](CC(C)C)C(N)=O)[C@@H](C)CC [GL-13, GQIINLKASLDLL-NH2] (H-GQIINLKASLDLL-NH2) | >50 | – | – | 33.28 ± 1.07 | > 50000 | not able to produce any depolarization effect
CC[C@H](C)[C@H](NC(=O)[C@H](CCCCN)NC(=O)[C@H](CCC(=O)O)NC(=O)[C@H](CCCCN)NC(=O)[C@H](CO)NC(=O)[C@H](CCCCN)NC(=O)[C@H](CCCNC(=N)N)NC(=O)[C@H](Cc1ccccc1)NC(=O)[C@H](Cc1ccccc1)NC(=O)[C@H](CC(=O)O)NC(=O)CNC(=O)[C@H](CC(C)C)NC(=O)[C@@H](N)CC(C)C)C(=O)NCC(=O)N[C@@H](CCCCN)C(=O)N[C@@H](CCC(=O)O)C(=O)N[C@@H](Cc1ccccc1)C(=O)N[C@@H](CCCCN)C(=O)N[C@@H](CCCNC(=N)N)C(=O)N[C@H](C(=O)N[C@H](C(=O)N[C@@H](CCC(N)=O)C(=O)N[C@@H](CCCNC(=N)N)C(=O)N[C@H](C(=O)N[C@@H](CCCCN)C(=O)N[C@@H](CC(=O)O)C(=O)N[C@@H](Cc1ccccc1)C(=O)N[C@@H](CC(C)C)C(=O)N[C@@H](CCCNC(=N)N)C(=O)N[C@@H](CC(N)=O)C(=O)N[C@@H](CC(C)C)C(=O)N[C@H](C(=O)N1CCC[C@H]1C(=O)N[C@@H](CCCNC(=N)N)C(=O)N[C@H](C(=O)N[C@@H](CCC(=O)O)C(=O)N[C@@H](CO)C(N)=O)[C@@H](C)O)C(C)C)[C@@H](C)CC)C(C)C)[C@@H](C)CC [LL-37] | 6.00 ± 0.05 (≈ 27 µg/mL) | 2280 ± 220 | 28.24 ± 2.91 | 35.54 ± 1.13 | – | –

Source: patent US10487117B2, “Antimicrobial peptide for nosocomial infections” (priority 2015, dated 2019)
